# Read-outs that look alike come from different tables or passages of the source.
# Details: 3.5 % lipids in yoghurt
# Method: Analogous to example 2 four yoghurts with 3.5% fat (lipids) were followed during transit in the TNO intestinal Model (TIM).
# The digestion process in the model was monitored for 5 hours. During the first 3 hours, the gastric content was gradually delivered into the small intestine via the Pyloric valve. At the end of the experiment, approximately 80% of the small intestine content was gradually delivered into the Large intestine via the Ileocecal valve.
# Gastric secretions consisted of pepsin from porcine gastric mucosa (EC 3.4.23.1; Sigma-Aldrich Canada) and lipase (EC 3.1.1.3, from Rhizopus oryzae, Amano Pharmaceuticals, Japan), both dissolved in a Gastric Electrolyte Solution (GES: 3.1 g/l NaCl; 1.1 g/l KCl; 0.15 g/l CaCl2; 0.6 g/l NaHCO3). At the beginning of the experiment, a solution of trypsin from porcine pancreas (EC 3.4.21.4; Sigma-Aldrich Canada) was directly introduced into the duodenum. Also, porcine bile extract (supernatant of centrifuged, thawed bile from frozen, fresh collected porcine bile); pancreatic solution (Pancrex V powder; Paines and Byrne, UK), and intestine electrolyte solution (5.0 g/l NaCl; 0.6 g/l KCl; 0.3 g/l CaCl2 at pH 7.0) were delivered in the duodenal compartment.
# Prior to testing the yoghurt containers were gently shaken to homogenise contents. At the beginning of each experiment, a 270 g amount of yoghurt was introduced into the gastric (i.e. stomach)—compartment of the TIM. At specific intervals samples were taken from different compartments of the gastro-intestinal tract (Gastric-; jejunum- and ileum lumen). A selection of fresh lumen samples were also directly visually studied by Bright Field microscope (Leica ATC2000 Binocular Microscope), equipped with a phase contrast mode.
# The profile of the free fatty acid part of the lipid composition (FFA analysis) was determined by a method developed by the NIZO.
# The free fatty acid level for all fatty acids in the ileum as well as the saturated fatty acid (FA) fraction C16:0 and C18:0 and higher in the ileum lumen were determined using FFA method as described above.
smiles,measurement,setting,value
CCCCCCCCCCCCCCCC(=O)O [Palmitic acid],Total FFA levels in the ileum lumen,1 h,171.5 g FFA/kg dry matter
same,saturated FFA (C16:0 + C18:0 + C20:0) based on total FFA in the ileum lumen,1 h,91.4 w/w %
same,Total FFA levels in the ileum lumen,2 h,348.3 g FFA/kg dry matter
same,saturated FFA (C16:0 + C18:0 + C20:0) based on total FFA in the ileum lumen,2 h,96.6 w/w %
same,Total FFA levels in the ileum lumen,3 h,504.8 g FFA/kg dry matter
same,saturated FFA (C16:0 + C18:0 + C20:0) based on total FFA in the ileum lumen,3 h,97.8 w/w %
same,Total FFA levels in the ileum lumen,4 h,461.6 g FFA/kg dry matter
same,saturated FFA (C16:0 + C18:0 + C20:0) based on total FFA in the ileum lumen,4 h,97.5 w/w %
same,Total FFA levels in the ileum lumen,5 h,466.2 g FFA/kg dry matter
same,saturated FFA (C16:0 + C18:0 + C20:0) based on total FFA in the ileum lumen,5 h,97.6 w/w %

# From patent US20130253058A1, “SATIETY-INDUCING COMPOSITION” (DSM IP ASSETS B.V., priority 2009, published 2013)
